2 molecules from patent publication US5686418A, “Prolonging survival of transplanted pancreatic cells” (Biomeasure Incorporated, priority 1996, dated 1997) can be followed below.

Read-outs that look alike come from different tables or passages of the source. Where a SMILES comes first, the peptide text is derived from it. Bridges are numbered along the chain shown (N, C = ends). [ ]: non-standard residue; d: D form.

For orientation: Ki means the dissociation constant of the complex between target and ligand, obtained from inhibition or displacement.

In one test the target is human SSTR-1 (Homo sapiens, UniProt P30872). The test is described as follows: Somatostatin receptor binding assay, hSSTR-1. An excerpt:
(§1) The human SSTR-1, SSTR-2, SSTR-3, SSTR-4, and SSTR-5 cDNA clones have been described (SSTR-1 and SSTR-2 in Yamada, Y., et al., Proc. Natl. Acad. Sci. USA., 89:251-255 (1992); SSTR-3 in Yamade, et al., Mol. Endocrinol. 6:2136-2142 (1993); and SSTR-4 and SSTR-5 in Yamada, et al., Biochem. Biophys. Res. Commun. 195:844-852 (1993)) and are also available from American Type Culture Collection (ATCC, Rockville, Md.) (ATCC Nos. 79044 (SSTR-1), 79046 (SSTR-2), and 79048 (SSTR-3)). […] Restriction endonucleases are available from New England Biolabs (Beverly, Mass.). This cDNA fragment was inserted into the mammalian expression vector, pCMV (Russell, D., et al., J. Biol. Chem., 264:8222-8229 (1989)), using standard molecular biology techniques (see e.g., Maniatis, T., et al., Molecular Cloning--A Laboratory Manual, Cold Spring Harbor Laboratory, 1982) to produce the expression plasmid, pCMV-human SSTR-1 through pCMV-human SSTR-5. Other mammalian expression vectors include pcDNA1/Amp (Invitrogen, Sandlesy, Calif.). The expression plasmids were introduced into the suitable bacterial host, E. Coli HB101 (Stratagene, La Jolla, Calif.) and plasmid DNAs, for transfection, were prepared on Cesium Chloride gradients.
(§2) CHO-K1 (ovary, Chinese hamster) cells were obtained from ATCC (ATCC No. CCL 61). […]

A further test concerns the target human SSTR-2 (Homo sapiens, UniProt P30874). The test is described as follows: Somatostatin receptor binding assay, hSSTR-2.
Text: as §1, §2

In the next test the target is human SSTR-3 (Homo sapiens, UniProt P32745). In words: Somatostatin receptor binding assay, hSSTR-3.
Text: as §1, §2

A further test has as its target human SSTR-5 (Homo sapiens, UniProt P35346). The test is described as follows: Somatostatin receptor binding assay, hSSTR-5.
Text: as §1, §2

For a further test, the target named is human SSTR-4 (Homo sapiens, UniProt P31391). In words: Somatostatin receptor binding assay, hSSTR-4.
Text: as §1, §2

Chain of human SSTR-5 (P35346 whole entry): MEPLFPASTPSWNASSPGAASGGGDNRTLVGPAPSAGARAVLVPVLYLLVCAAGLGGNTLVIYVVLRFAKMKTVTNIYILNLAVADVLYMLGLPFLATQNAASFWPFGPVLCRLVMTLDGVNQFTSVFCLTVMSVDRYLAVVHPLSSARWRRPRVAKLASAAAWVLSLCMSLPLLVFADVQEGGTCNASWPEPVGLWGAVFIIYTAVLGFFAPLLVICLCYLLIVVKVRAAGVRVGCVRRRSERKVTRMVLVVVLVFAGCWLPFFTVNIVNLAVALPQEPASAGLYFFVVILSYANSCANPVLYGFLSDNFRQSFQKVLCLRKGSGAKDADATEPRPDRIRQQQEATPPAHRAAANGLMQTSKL
Chain of human SSTR-2 (P30874 whole entry): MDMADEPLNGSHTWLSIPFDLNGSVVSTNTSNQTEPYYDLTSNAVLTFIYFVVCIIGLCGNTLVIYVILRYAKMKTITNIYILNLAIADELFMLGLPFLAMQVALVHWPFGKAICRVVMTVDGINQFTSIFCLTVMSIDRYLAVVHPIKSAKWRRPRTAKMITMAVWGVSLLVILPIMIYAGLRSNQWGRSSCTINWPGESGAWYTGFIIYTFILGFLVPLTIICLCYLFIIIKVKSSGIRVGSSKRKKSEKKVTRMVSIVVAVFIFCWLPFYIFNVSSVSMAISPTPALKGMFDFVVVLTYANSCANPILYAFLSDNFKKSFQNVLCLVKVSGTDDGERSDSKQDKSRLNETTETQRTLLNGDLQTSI
Chain of human SSTR-1 (P30872 whole entry, the tested form may be a part): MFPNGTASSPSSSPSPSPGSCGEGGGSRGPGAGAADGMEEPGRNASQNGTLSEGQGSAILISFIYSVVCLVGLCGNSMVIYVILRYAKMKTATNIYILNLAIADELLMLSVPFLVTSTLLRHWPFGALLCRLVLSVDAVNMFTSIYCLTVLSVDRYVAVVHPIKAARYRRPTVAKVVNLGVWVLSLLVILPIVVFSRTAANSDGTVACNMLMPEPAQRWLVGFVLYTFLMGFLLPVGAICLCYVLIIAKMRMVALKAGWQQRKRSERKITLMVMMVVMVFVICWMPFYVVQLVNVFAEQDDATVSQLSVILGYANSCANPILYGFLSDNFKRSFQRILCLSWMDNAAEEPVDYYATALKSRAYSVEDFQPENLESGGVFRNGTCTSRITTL
Chain of human SSTR-3 (P32745 whole entry): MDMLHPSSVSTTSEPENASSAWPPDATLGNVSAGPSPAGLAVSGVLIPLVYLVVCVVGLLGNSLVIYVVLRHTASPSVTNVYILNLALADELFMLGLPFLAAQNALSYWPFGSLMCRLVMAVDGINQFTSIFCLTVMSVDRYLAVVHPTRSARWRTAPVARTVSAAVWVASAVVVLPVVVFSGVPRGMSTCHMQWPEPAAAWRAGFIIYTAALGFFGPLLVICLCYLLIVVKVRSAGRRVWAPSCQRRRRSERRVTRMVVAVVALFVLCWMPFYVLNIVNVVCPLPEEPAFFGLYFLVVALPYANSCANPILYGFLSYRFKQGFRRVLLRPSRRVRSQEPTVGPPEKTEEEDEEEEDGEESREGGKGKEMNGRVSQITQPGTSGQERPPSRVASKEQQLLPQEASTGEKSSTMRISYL
Chain of human SSTR-4 (P31391 whole entry): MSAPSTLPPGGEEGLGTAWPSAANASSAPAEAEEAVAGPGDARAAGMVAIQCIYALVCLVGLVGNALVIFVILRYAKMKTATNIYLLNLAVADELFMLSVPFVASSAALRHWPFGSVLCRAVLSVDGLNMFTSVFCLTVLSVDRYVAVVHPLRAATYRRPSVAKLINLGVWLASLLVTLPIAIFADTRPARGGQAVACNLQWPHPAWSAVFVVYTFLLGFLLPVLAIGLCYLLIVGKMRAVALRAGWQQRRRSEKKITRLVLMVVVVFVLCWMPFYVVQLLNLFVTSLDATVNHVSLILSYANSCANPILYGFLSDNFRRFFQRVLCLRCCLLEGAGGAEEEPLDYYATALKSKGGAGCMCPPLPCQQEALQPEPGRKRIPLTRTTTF

For the molecule `C[C@@H](O)[C@@H]1NC(=O)[C@H](CCCCN)NC(=O)[C@@H](Cc2c[nH]c3ccccc23)NC(=O)[C@H](Cc2ccccc2)NC(=O)[C@H](Cc2ccccc2)NC(=O)[C@@H](N)CSSC[C@@H](C(N)=O)NC(=O)[C@H](Cc2ccccc2)NC1=O` [BM-23268, H-Cys-Phe-Phe-D-Trp-Lys-Thr-Phe-Cys-NH2] (H-CFF[dW]KTFC-NH2; disulfide 1-8), the Ki at human SSTR-1 was 12.3 nM; at human SSTR-2, 6.84 nM; on human SSTR-3, 61.6 nM; on human SSTR-5 (read-out: Ki hSSTR-5) it was 0.376 nM.
As for `C[C@@H](O)[C@H](NC(=O)[C@H](Cc1ccccc1)NC(=O)[C@@H](NC(=O)[C@H](CCCCN)NC(=O)[C@@H](Cc1c[nH]c2ccccc12)NC(=O)[C@H](Cc1ccccc1)NC(=O)[C@H](Cc1ccccc1)NC(=O)[C@H](N)Cc1ccccc1)[C@@H](C)O)C(N)=O` [BIM-23052, H-D-Phe-Phe-Phe-D-Trp-Lys-Thr-Phe-Thr-NH2] (H-[dF]FF[dW]KTFT-NH2), the inhibitory constant (Ki) on human SSTR-1 stood at 97.6 nM; at human SSTR-2 it was 5.77 nM; at human SSTR-3, 5.59 nM; on human SSTR-4, 126 nM; on human SSTR-5, 1.23 nM.
